What all share (format): biochemical
The target in assay [1] is CDK3/Cyclin E (Homo sapiens, UniProt Q00526). As to the kind of experiment: CDK3/Cyclin E kinase assay (Nanosyn, Caliper microfluidic). Particulars: 12-point dose-response, ATP at Km (400 μM), 3 hr. The gist of the method: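 Caliper microfluidic mobility-shift read-out with 1 nM enzyme, 400 μM ATP (stated as Km) and 1 μM peptide substrate, 3 hr incubation. Compounds run as 12-point dose-response in singlicate.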

Assay [2] has as its target CDK9/Cyclin T (Homo sapiens, UniProt P50750). The assay is described as follows: CDK9/Cyclin T kinase assay (Nanosyn, Caliper microfluidic). As to conditions: 12-point dose-response, ATP at Km (10 μM), 17 hr; Table 5. The gist of the method:
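Caliper microfluidic mobility-shift read-out, 12-point dose-response in singlicate at ATP Km with 1 μM peptide substrate; staurosporine reference.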

Assay [3] deals with CDK6/Cyclin D3 (Homo sapiens, UniProt Q00534). As to the kind of experiment: CDK6/Cyclin D3 kinase assay (Nanosyn, Caliper microfluidic). As to conditions: 12-point dose-response, ATP at Km (300 μM), 3 hr. The gist of the method: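 Caliper microfluidic assay with 2 nM enzyme, 300 μM ATP and 1 μM phosphoacceptor peptide, incubated for 3 hr. Compounds were run as 12-point dose-response curves in singlicate.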

The target in assay [4] is CDK7/Cyclin H (Homo sapiens, UniProt P50613). The assay is described as follows: CDK7/Cyclin H kinase assay (Nanosyn, Caliper microfluidic). Particulars: 12-point dose-response, ATP at Km (50 μM), 17 hr. The gist of the method:
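Caliper microfluidic mobility-shift assay with 10 nM CDK7/Cyclin H, 50 μM ATP (Km) and 1 μM peptide substrate, incubated 17 hr. Compounds run in 12-point dose-response, singlicate.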

In assay [5] the target is CDK1/Cyclin B1 (Homo sapiens, UniProt P06493). The assay is described as follows: CDK1/Cyclin B1 kinase assay (Nanosyn, Caliper microfluidic). Particulars: 12-point dose-response, ATP at Km (40 μM), 3 hr. In short, it runs like this: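 Mobility-shift microfluidic kinase assay, 12-point dose-response in singlicate. Conditions: 0.08 nM enzyme, 40 μM ATP (Km), 1 μM peptide substrate, 3 hr incubation; staurosporine as reference.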

For assay [6], the target named is CDK2/Cyclin E (Homo sapiens, UniProt P24941). As to the kind of experiment: CDK2/Cyclin E kinase assay (Nanosyn, Caliper microfluidic). As to conditions: 12-point dose-response, ATP at Km (100 μM), 3 hr. In short, it runs like this:
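Caliper microfluidic mobility-shift readout of phosphorylation of 1 μM substrate peptide by 0.15 nM enzyme at 100 μM ATP (stated as Km), 3 hr incubation. 12-point dose-response in singlicate, staurosporine as reference.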

For assay [7], the target named is CDK2/Cyclin A (Homo sapiens, UniProt P24941). As to the kind of experiment: CDK2/Cyclin A kinase assay (Nanosyn, Caliper microfluidic). Particulars: 12-point dose-response, ATP at Km (50 μM), 3 hr. The gist of the method: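 Caliper microfluidic mobility-shift read-out; 0.1 nM enzyme, 50 μM ATP (Km), 1 μM peptide substrate, 3 hr incubation. 12-point dose-response in singlicate; staurosporine as reference.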

The target in assay [8] is CDK4/Cyclin D1 (Homo sapiens, UniProt P11802). The assay is described as follows: CDK4/Cyclin D1 kinase assay (Nanosyn, Caliper microfluidic). As to conditions: 12-point dose-response, ATP at Km (200 μM), 3 hr; Table 4. The gist of the method: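 Caliper microfluidic mobility-shift read-out, 12-point dose-response in singlicate. 1 nM enzyme, 200 μM ATP (Km), 1 μM peptide substrate, 3 hr incubation; staurosporine as reference.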

Assay [9] deals with CDK5/p25 (Homo sapiens, UniProt Q00535). As to the kind of experiment: CDK5/p25 kinase assay (Nanosyn, Caliper microfluidic). Particulars: 12-point dose-response, ATP at Km (20 μM), 3 hr. The gist of the method: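 Caliper microfluidic mobility-shift assay, 12-point dose-response in singlicate. CDK5/p25 at 0.1 nM with 20 μM ATP (Km) and 1 μM peptide substrate. Incubation 3 hr.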

The target of assay [10] is CDK5/p35 (Homo sapiens, UniProt Q00535). As to the kind of experiment: CDK5/p35 kinase assay (Nanosyn, Caliper microfluidic). Particulars: 12-point dose-response, ATP at Km (20 μM), 3 hr. The gist of the method: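 Microfluidic mobility-shift kinase assay with 0.05 nM CDK5/p35, 20 μM ATP (Km) and 1 μM peptide substrate, 3 hr incubation. Compounds tested as 12-point dose–response in singlicate; staurosporine as reference.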

Molecules are shown by their SMILES.

IC50 data for 10 compounds are collected here from patent publication US20200331925A1, “HETEROCYCLIC COMPOUNDS FOR THE TREATMENT OF ABNORMAL CELLULAR PROLIFERATION” (G1 Therapeutics, Inc., priority 2018, published 2020).

Sequence of CDK1/Cyclin B1 (P06493 whole entry): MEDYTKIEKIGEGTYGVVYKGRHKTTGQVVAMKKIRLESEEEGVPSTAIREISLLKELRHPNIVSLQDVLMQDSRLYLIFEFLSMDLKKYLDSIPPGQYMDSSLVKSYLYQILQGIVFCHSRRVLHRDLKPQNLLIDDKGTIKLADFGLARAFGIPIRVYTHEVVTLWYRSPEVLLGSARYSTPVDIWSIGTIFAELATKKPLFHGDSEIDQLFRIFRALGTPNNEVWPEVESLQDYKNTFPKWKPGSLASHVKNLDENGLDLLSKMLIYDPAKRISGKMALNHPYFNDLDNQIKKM
Sequence of CDK1/Cyclin B1 (P14635 whole entry partner): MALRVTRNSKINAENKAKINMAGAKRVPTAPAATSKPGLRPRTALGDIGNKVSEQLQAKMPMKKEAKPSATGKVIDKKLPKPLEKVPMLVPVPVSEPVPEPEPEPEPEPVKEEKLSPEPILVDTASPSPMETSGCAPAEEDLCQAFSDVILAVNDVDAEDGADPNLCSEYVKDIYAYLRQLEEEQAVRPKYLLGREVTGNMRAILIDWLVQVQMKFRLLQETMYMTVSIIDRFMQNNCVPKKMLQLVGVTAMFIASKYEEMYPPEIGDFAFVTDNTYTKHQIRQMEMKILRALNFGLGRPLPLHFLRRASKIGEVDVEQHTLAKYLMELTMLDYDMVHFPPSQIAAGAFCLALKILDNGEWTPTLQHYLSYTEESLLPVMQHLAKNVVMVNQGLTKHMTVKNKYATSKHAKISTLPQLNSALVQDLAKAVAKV
Sequence of CDK5/p35 (Q00535 whole entry): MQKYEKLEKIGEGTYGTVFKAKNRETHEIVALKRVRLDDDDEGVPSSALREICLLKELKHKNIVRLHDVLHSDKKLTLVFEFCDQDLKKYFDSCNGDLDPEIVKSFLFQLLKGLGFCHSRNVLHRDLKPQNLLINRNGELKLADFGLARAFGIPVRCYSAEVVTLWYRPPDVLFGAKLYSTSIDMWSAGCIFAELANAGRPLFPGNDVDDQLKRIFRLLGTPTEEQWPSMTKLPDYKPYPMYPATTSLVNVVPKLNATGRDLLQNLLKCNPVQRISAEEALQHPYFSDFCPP
Sequence of CDK5/p35 (Q15078 whole entry partner): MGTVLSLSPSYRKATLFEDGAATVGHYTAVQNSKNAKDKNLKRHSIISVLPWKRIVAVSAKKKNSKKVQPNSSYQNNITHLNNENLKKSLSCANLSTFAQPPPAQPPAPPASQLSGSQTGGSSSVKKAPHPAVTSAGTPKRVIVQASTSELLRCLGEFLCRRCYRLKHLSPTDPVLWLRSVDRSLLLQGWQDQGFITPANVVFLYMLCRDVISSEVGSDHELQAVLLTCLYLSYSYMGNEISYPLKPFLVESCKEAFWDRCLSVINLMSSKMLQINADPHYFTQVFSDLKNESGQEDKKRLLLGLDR
Sequence of CDK5/p25 (Q00535 whole entry): as the sequence (Q00535 whole entry) above
Sequence of CDK5/p25 (Q15078 99-307 partner limits assumed): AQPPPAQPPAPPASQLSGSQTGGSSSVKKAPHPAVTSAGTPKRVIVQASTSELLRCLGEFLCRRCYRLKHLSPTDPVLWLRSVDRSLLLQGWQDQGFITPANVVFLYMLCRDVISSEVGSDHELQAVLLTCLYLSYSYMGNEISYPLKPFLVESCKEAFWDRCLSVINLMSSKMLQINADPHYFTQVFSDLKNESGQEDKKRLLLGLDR
Sequence of CDK9/Cyclin T (P50750 whole entry): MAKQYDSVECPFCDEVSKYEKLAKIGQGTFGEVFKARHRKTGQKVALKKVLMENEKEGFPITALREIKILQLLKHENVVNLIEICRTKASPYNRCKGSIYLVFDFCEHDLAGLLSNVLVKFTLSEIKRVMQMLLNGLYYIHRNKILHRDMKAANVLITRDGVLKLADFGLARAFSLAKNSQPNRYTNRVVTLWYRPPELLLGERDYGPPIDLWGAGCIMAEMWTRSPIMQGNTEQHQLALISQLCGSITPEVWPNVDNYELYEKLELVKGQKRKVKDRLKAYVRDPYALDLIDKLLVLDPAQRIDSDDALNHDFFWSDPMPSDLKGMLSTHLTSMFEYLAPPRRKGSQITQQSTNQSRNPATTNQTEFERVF
Sequence of CDK9/Cyclin T (O60563 whole entry partner): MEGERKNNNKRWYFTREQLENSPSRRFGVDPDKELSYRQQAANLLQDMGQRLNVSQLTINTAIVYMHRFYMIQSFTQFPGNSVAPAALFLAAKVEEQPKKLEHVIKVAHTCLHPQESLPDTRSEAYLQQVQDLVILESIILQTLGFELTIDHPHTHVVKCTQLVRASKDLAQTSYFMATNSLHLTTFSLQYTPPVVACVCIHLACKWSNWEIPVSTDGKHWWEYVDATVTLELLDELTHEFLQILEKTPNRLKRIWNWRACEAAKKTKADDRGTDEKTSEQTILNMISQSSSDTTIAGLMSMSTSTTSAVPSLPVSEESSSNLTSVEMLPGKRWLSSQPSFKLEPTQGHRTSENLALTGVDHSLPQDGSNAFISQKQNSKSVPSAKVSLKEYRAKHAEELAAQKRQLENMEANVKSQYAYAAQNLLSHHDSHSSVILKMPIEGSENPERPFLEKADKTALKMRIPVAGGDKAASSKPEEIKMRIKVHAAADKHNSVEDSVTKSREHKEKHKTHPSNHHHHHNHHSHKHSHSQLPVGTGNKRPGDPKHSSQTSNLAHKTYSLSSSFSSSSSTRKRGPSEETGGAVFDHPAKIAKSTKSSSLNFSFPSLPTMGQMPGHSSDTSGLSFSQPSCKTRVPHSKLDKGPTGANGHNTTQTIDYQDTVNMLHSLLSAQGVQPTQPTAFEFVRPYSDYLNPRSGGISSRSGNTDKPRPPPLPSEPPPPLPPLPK
Sequence of CDK6/Cyclin D3 (Q00534 whole entry): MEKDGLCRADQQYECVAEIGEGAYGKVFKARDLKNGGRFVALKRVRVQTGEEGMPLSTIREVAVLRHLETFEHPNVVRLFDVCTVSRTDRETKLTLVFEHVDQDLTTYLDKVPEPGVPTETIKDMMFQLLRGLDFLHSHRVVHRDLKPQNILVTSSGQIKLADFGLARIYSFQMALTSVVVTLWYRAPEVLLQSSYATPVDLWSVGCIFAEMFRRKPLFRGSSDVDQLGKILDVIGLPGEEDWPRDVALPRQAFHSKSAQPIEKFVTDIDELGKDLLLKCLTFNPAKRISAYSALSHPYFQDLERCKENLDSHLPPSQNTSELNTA
Sequence of CDK6/Cyclin D3 (P30281 whole entry partner): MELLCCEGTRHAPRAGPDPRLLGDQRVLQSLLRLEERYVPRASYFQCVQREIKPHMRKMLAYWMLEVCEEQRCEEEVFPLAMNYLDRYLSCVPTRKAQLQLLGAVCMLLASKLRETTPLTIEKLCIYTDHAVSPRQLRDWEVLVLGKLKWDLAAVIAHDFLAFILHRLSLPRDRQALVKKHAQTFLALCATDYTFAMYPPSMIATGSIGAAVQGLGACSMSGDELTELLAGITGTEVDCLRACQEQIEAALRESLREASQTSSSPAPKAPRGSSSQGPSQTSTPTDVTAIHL
Sequence of CDK7/Cyclin H (P50613 whole entry): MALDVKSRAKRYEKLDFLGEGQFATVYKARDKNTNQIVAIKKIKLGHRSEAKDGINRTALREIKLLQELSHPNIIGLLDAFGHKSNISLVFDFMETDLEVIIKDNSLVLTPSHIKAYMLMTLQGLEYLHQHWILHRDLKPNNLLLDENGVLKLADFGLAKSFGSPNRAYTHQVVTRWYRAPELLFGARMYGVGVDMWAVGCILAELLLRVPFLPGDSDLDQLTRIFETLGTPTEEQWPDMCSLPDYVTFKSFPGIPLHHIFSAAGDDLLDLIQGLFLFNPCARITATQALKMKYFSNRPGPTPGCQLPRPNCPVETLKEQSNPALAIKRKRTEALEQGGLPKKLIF
Sequence of CDK7/Cyclin H (P51946 whole entry partner): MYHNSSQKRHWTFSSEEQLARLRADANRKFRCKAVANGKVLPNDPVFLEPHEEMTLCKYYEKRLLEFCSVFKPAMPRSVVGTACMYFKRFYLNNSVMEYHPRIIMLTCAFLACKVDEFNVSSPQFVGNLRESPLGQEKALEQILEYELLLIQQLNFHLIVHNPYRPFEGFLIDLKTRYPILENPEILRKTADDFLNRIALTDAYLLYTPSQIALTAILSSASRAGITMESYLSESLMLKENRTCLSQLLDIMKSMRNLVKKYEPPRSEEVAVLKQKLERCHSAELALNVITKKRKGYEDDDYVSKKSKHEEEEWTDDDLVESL
Sequence of CDK7/Cyclin H (P51948 whole entry partner): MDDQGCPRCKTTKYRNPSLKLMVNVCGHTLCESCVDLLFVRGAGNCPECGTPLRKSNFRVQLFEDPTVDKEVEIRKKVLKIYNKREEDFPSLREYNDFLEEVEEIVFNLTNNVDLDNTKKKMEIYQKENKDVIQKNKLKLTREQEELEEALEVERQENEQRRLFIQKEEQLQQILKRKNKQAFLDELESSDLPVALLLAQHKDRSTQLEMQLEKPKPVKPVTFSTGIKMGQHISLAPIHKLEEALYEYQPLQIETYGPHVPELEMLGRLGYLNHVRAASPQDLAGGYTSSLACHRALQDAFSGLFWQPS

As for `O=C1NCC2(CCCCC2)n2c1cc1cnc(NC(=O)[C@@H]3CCNC3)nc12` [Compound 32, (R)-N-(6′-oxo-7′,8′-dihydro-6′H-spiro[cyclohexane-1,9′-pyrazino[1′,2′:1,5]pyrrolo[2,3-d]pyrimidin]-2′-yl)pyrrolidine-3-carboxamide], the IC50 – broadly, the concentration that inhibits the measured activity by half – in assay [1] was 8.6 µM; in assay [2] it was 12 nM; in assay [3], 14 µM; in assay [4], 12 µM; in [5], 5.6 µM; in assay [6] it was 12 µM. Moreover, the IC50 is 3.1 µM in assay [7], 2300 nM in [8], 19 µM in assay [9] and 16 µM in assay [10].

As to `O=C1NCC2(CCCCC2)n2c1cc1cnc(NC(=O)[C@H]3CCNC3)nc12` [Compound 33, (S)-N-(6′-oxo-7′,8′-dihydro-6′H-spiro[cyclohexane-1,9′-pyrazino[1′,2′:1,5]pyrrolo[2,3-d]pyrimidin]-2′-yl)pyrrolidine-3-carboxamide], the IC50 in assay [1] came out at 23 µM; in [2], 35 nM; in assay [3], 12 µM; in assay [4], 20 µM; in assay [5] it was 16 µM; in assay [6], 26 µM. Further, the IC50 in [7] worked out at 6.1 µM; in assay [8], 3300 nM; in assay [9], 34 µM; in assay [10], 34 µM.

On to `O=C(C[C@@H]1CCCN1)Nc1ncc2cc3n(c2n1)C1(CCCCC1)CNC3=O` [Compound 34, (S)-N-(6′-oxo-7′,8′-dihydro-6′H-spiro[cyclohexane-1,9′-pyrazino[1′,2′:1,5]pyrrolo[2,3-d]pyrimidin]-2′-yl)-2-(pyrrolidin-2-yl)acetamide], for which the IC50 in assay [1] was 33 µM; in assay [2] it was 190 nM; in assay [3] it was 8.4 µM; in assay [4], 17 µM; in assay [5] it was 18 µM; in [6], 27 µM. In addition, the IC50 came out at 12 µM in assay [7], 2900 nM in assay [8], 52 µM in assay [9] and 29 µM in assay [10].

For the compound `O=C1NCC2(CCCCC2)n2c1cc1cnc(NC(=O)[C@H]3CNCCO3)nc12` [Compound 35, (R)-N-(6′-oxo-7′,8′-dihydro-6′H-spiro[cyclohexane-1,9′-pyrazino[1′,2′:1,5]pyrrolo[2,3-d]pyrimidin]-2′-yl)morpholine-2-carboxamide], the IC50 in assay [1] was 54 µM; in assay [2], 88 nM; in [3] it was more than 100 µM; in assay [4], 61 µM; in assay [5] it was 31 µM; in [6], 26 µM. In addition, the IC50 is 10 µM in assay [7], 27000 nM in assay [8], 43 µM in assay [9] and 40 µM in assay [10].

Turning to `O=C1NCC2(CCCCC2)n2c1cc1cnc(NC(=O)[C@H]3CNCCN3)nc12` [Compound 36, (R)-N-(6′-oxo-7′,8′-dihydro-6′H-spiro[cyclohexane-1,9′-pyrazino[1′,2′:1,5]pyrrolo[2,3-d]pyrimidin]-2′-yl)piperazine-2-carboxamide], the IC50 in assay [1] is more than 100 µM; in [2], 240 nM; in assay [3], 82 µM; in assay [4] it was more than 100 µM; in [5], more than 100 µM; in [6] it was more than 100 µM. Also, the IC50 is 88 µM in [7], 9400 nM in assay [8], more than 100 µM in assay [9] and more than 100 µM in assay [10].

For `O=C(C[C@H]1CCCN1)Nc1ncc2cc3n(c2n1)C1(CCCCC1)CNC3=O` [Compound 37, (R)-N-(6′-oxo-7′,8′-dihydro-6′H-spiro[cyclohexane-1,9′-pyrazino[1′,2′:1,5]pyrrolo[2,3-d]pyrimidin]-2′-yl)-2-(pyrrolidin-2-yl)acetamide], the IC50 in assay [1] amounted to 38 µM; in [2], 120 nM; in assay [3], 14 µM; in assay [4], 17 µM; in assay [5] it was 27 µM; in assay [6], 29 µM. The IC50 in [7] was determined as 16 µM; in assay [8] it was 6300 nM; in assay [9], 31 µM; in assay [10] it was 28 µM.

As to `CN1CCN([C@H]2CC[C@@H](Nc3ncc4cc5n(c4n3)C3(CCCCC3)CNC5=S)CC2)CC1` [Compound 39, 2′-(((1s,4s)-4-(4-methylpiperazin-1-yl)cyclohexyl)amino)-7′,8′-dihydro-6′H-spiro[cyclohexane-1,9′-pyrazino[1′,2′:1,5]pyrrolo[2,3-d]pyrimidine]-6′-thione], the IC50 in assay [1] worked out at 0.42 µM; in assay [2] it was 13 nM; in [3] it was 0.048 µM; in [4] it was 0.5 µM; in assay [5], 1.2 µM; in assay [6] it was 0.3 µM. Further, the half-maximal inhibitory concentration (IC50) in assay [7] was 0.14 µM; in assay [8], 9.5 nM; in assay [9], 1.6 µM; in assay [10], 1.5 µM.

On to `S=C1NCC2(CCCCC2)n2c1cc1cnc(N[C@H]3CCCNC3)nc12` [Compound 40, (S)-2′-(piperidin-3-ylamino)-7′,8′-dihydro-6′H-spiro[cyclohexane-1,9′-pyrazino[1′,2′:1,5]pyrrolo[2,3-d]pyrimidine]-6′-thione], for which the IC50 in assay [1] was 0.017 µM; in [2], 3.4 nM; in assay [3], 0.079 µM; in assay [4] it was 0.01 µM; in assay [5] it was 0.061 µM; in assay [6], 0.11 µM. In addition, the IC50 in assay [7] came out at 0.1 µM; in [8], 23 nM; in assay [9], 0.04 µM; in [10], 0.051 µM.

With `S=C1NCC2(CCCCC2)n2c1cc1cnc(N[C@@H]3CCCNC3)nc12` [Compound 41, (R)-2′-(piperidin-3-ylamino)-7′,8′-dihydro-6′H-spiro[cyclohexane-1,9′-pyrazino[1′,2′:1,5]pyrrolo[2,3-d]pyrimidine]-6′-thione], the IC50 in [1] came out at 0.21 µM; in [2] it was 4.3 nM; in assay [3], 0.023 µM; in assay [4], 0.085 µM; in [5], 0.33 µM; in assay [6] it was 0.31 µM. Also, the IC50 in assay [7] came to 0.15 µM; in [8] it was 6.7 nM; in assay [9] it was 0.97 µM; in assay [10], 1.1 µM.

With `NS(=O)(=O)c1cccc(Nc2ncc3cc4n(c3n2)C2(CCCCC2)CNC4=O)c1` [Compound 42, 3-((6′-oxo-7′,8′-dihydro-6′H-spiro[cyclohexane-1,9′-pyrazino[1′,2′:1,5]pyrrolo[2,3-d]pyrimidin]-2′-yl)amino)benzenesulfonamide], the IC50 in [1] was determined as 0.012 µM; in [2] it was 1.2 nM; in [3] it was 0.022 µM; in assay [4] it was 0.24 µM; in assay [5], 0.0088 µM; in assay [6], 0.0078 µM. The concentration for half-maximal inhibition (IC50) came to 0.0043 µM in assay [7], 8.9 nM in [8], 0.0055 µM in assay [9] and 0.0075 µM in assay [10].
